Assay in all cases: inhibition of tumour cell growth, NCI panel, 48 h
Assay [1] concerns MDA-MB-231.
The test system of assay [2] is UACC-257.
Assay [3] has as its system SNB-19.
Assay [4] has as its system CAKI-1.
Assay [5] concerns A549.
The subject of assay [6] is COLO 205.
Assay [7] deals with MOLT-4.
In assay [8] the test system is NCI/ADR-RES.
In assay [9] the test system is HCT-15.
Assay [10] relates to BT-549.
The subject of assay [11] is NCI-H23.
The subject of assay [12] is SNB-75.
Assay [13] relates to SF-295.
Assay [14] concerns OVCAR-4.
The subject of assay [15] is OVCAR-8.
Assay [16] relates to NCI-H226.
Assay [17] concerns UACC-62.
In assay [18] the test system is MDA-N.
In assay [19] the test system is NCI-H522.
For assay [20], the system named is NCI-H460.

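A five-concentration, 48-hour dose response in 96-well plates underlies each endpoint, interpolated linearly between surrounding concentrations. GI50: concentration for 50% inhibition of growth.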 The source made the active and inactive calls. Cut-off read from the data, not from the text of the source: active = GI50 up to about 1.1 µM and inactive = higher. Where a SMILES comes first, the peptide text is derived from it. [ ]: non-standard residue; d: D form. The star is where a group is joined. ξ: configuration not given here. ξF = NC(Cc1ccccc1)C(=O)O; Cbz = O=C(OCc1ccccc1)*; Aib = CC(C)(N)C(=O)O; NHNH2 = NN*

On to `N=C(N)/N=C(\N)Nc1ccc(C(=O)O)cc1`, for which the GI50 in [1], in assay [2], in assay [3], in [4], in [5] and in assay [6] was > 100 µM (inactive) in each case. The GI50 in assay [7] was > 100 µM (inactive); in assay [8] it was > 100 µM (inactive); in assay [9] it was more than 100 µM; in assay [10] it was > 100 µM (inactive); in assay [11], > 100 µM (inactive); in [12], > 100 µM (inactive). The GI50 in assay [13], in [14], in [15], in [16], in assay [17] and in assay [18] was > 100 µM (inactive) in each case. In addition, the GI50 in [19] and in [20] was > 100 µM (inactive) in each case.
As to `CC[C@]1(Cc2ccc(OC)c(OC)c2)C2CC(C(=O)OC)ON2O[C@H](OCc2ccccc2)[C@@H]1OC(C)=O` (stereo not given in full), the GI50 in assay [1], in assay [2], in assay [3], in assay [4], in assay [5] and in [6] was > 100 µM (inactive) each time. For the same molecule, the GI50 in assay [7] was > 100 µM (inactive); in assay [8], > 100 µM (inactive); in assay [9], more than 100 µM; in assay [10] it was > 100 µM (inactive); in assay [11], > 100 µM (inactive); in assay [12] it was > 100 µM (inactive). In addition, the GI50 in assay [13], in assay [14], in assay [15], in assay [16], in assay [17] and in assay [18] was > 100 µM (inactive) throughout. Also, the GI50 in assay [19] and in assay [20] was > 100 µM (inactive) in each case.
On to `O=C1CSC(c2ccccc2)N1c1ccc(-n2c(-c3ccccc3)nc3ccccc3c2=O)cc1` (stereo not given), for which the GI50 in assay [1] was 47.2 µM (inactive); in assay [2], > 100 µM (inactive); in [3], > 69.2 µM (inactive); in assay [4], > 100 µM (inactive); in assay [5], > 74.6 µM (inactive); in [6], 54.2 µM (inactive). The GI50 in [7] was 28.1 µM (inactive); in assay [8], 64.6 µM (inactive); in [9] it was 46.9 µM; in [10] it was > 80.7 µM (inactive); in assay [11], > 71.3 µM (inactive); in assay [12] it was > 100 µM (inactive). Also, the GI50 is 63.2 µM (inactive) in assay [13]; 42 µM (inactive) in assay [14]; 61.7 µM (inactive) in [15]; > 77.3 µM (inactive) in [16]; 33.3 µM (inactive) in assay [17]; > 79.1 µM (inactive) in assay [18]. Also, the values for the GI50 in assay [19] and in assay [20] were 49.7 µM (inactive) and 46.3 µM (inactive), respectively.
As to `O=[N+]([O-])c1ccc(C2ON=C(c3ccccc3)N2C23CC4CC(CC(C4)C2)C3)cc1` (stereo not given), the GI50 in assay [1], in assay [2], in [3], in [4], in assay [5] and in [6] was > 10 µM (inactive) throughout. Besides, the GI50 in [7] is > 10 µM (inactive); in [8] it was > 10 µM (inactive); in assay [9], more than 10 µM; in assay [10] it was > 10 µM (inactive); in assay [11] it was > 10 µM (inactive); in [12], 5.6 µM (inactive). Moreover, the GI50 in assay [13], in [14], in assay [15], in assay [16], in assay [17] and in assay [18] was > 10 µM (inactive) in each case. Besides, the GI50 in assay [19] and in assay [20] was > 10 µM (inactive) throughout.
Consider `C[n+]1[n-]o/c(=N\N=O)c1-c1cc(-c2/c(=N/N=O)o[n-][n+]2C)cc(-c2/c(=N\N=O)o[n-][n+]2C)c1`, for which the GI50 in assay [1], in assay [2], in assay [3], in [4], in assay [5] and in assay [6] was > 100 µM (inactive) each time. Moreover, the GI50 in assay [7] was > 100 µM (inactive); in [8], > 100 µM (inactive); in [9], more than 100 µM; in assay [10] it was > 100 µM (inactive); in assay [11], > 100 µM (inactive); in assay [12], 68.1 µM (inactive). For the same molecule, the GI50 in assay [13], in [14], in assay [15], in assay [16], in [17] and in assay [18] was > 100 µM (inactive) throughout. In addition, the GI50 in assay [19] and in [20] was > 100 µM (inactive) each time.
With `c1ccc(C2=Nc3nc4ccccc4n3C(c3ccccc3)C2)cc1` (stereo not given), the GI50 in assay [1] was 70.6 µM (inactive); in assay [2] it was > 100 µM (inactive); in assay [3] it was 44.8 µM (inactive); in assay [4] it was > 100 µM (inactive); in assay [5] it was > 100 µM (inactive); in assay [6], > 100 µM (inactive). For the same molecule, the GI50 in [7] is > 100 µM (inactive); in assay [8], > 100 µM (inactive); in assay [9] it was more than 100 µM; in assay [10] it was > 100 µM (inactive); in assay [11] it was > 100 µM (inactive); in assay [12], 27.9 µM (inactive). Further, the GI50 in assay [13] is 79.8 µM (inactive); in [14], > 100 µM (inactive); in assay [15], > 100 µM (inactive); in [16] it was > 100 µM (inactive); in assay [17] it was > 100 µM (inactive); in [18], > 100 µM (inactive). In addition, the GI50 in assay [19] and in assay [20] was > 100 µM (inactive) throughout.
`CCCCCCCCCCCCCCCC(=O)OCC1OC(n2ccc(N)nc2=O)C(O)C1O` (stereo not given): the GI50 was > 100 µM (inactive) in [1]; 33.4 µM (inactive) in assay [2]; 16.9 µM (inactive) in [3]; 5.36 µM (inactive) in [4]; 0.601 µM (active) in assay [5]; 15 µM (inactive) in assay [6]. Besides, the GI50 is 0.0274 µM (active) in [7]; > 48.3 µM (inactive) in [8]; more than 42.2 µM in assay [9]; > 100 µM (inactive) in assay [10]; 1.25 µM (inactive) in assay [11]; > 100 µM (inactive) in assay [12]. The GI50 was 44.8 µM (inactive) in assay [13]; > 100 µM (inactive) in assay [14]; 2.39 µM (inactive) in assay [15]; > 100 µM (inactive) in [16]; 11.4 µM (inactive) in assay [17]; > 100 µM (inactive) in assay [18]. Besides, the GI50 was 3.08 µM (inactive) in [19] and 0.401 µM (active) in [20].
Take `CC(C)(NC(=O)OCc1ccccc1)C(=O)NC(Cc1ccccc1)C(=O)NN` (stereo not given) (Cbz-[Aib]-[ξF]-NHNH2): the GI50 in [1], in [2], in [3], in [4], in assay [5] and in assay [6] was > 100 µM (inactive) throughout. The GI50 is > 100 µM (inactive) in [7]; > 100 µM (inactive) in assay [8]; more than 100 µM in assay [9]; > 100 µM (inactive) in assay [10]; > 100 µM (inactive) in assay [11]; > 100 µM (inactive) in [12]. Also, the GI50 in assay [13] is > 100 µM (inactive); in assay [14] it was > 100 µM (inactive); in assay [15] it was > 100 µM (inactive); in assay [16] it was > 100 µM (inactive); in [17], > 100 µM (inactive); in assay [18], 42.1 µM (inactive). In addition, the GI50 in assay [19] and in assay [20] was > 100 µM (inactive) each time.
